tested on: T1, TpdE; test: NADPH oxidation at […] nm, Michaelis-Menten fit; type: biochemical, Rhodococcus jostii; settings: 0.2 mM NADPH, 50 mM phosphate pH 7.2, 30 °C; apparent
T1 construct: C-terminal His6 tag, pET-tpdE in E. coli BL21 (DE3), Ni-chelating column, ~30 kDa on SDS-PAGE; residues T15, G16, G20, G22, N119, S148, Y161, K165

Point of comparison: `CCC(=O)C(=O)CC` [3,4-Hexanedione], Km 3.3 ± 0.6 mM. Against it:
- CCC(=O)C(C)=O [2,3-Pentanedione] — 3.4-fold lower, 0.98 ± 0.2 mM
- CC(=O)C(C)S (stereo not drawn) [3-Mercapto-2-butanone] — 4.4-fold higher, 14.4 ± 4.8 mM
- CCCCC(=O)C(C)=O [2,3-Heptanedione] — 2.1-fold higher, 6.9 ± 0.9 mM
- CC(=O)C(C)(C)O [3-Hydroxy-3-methyl-2-butanone] — 4.4-fold higher, 14.6 ± 4 mM
- CC(=O)C(C)O (stereo not drawn) [Acetoin] — 1.5-fold higher, 5 ± 0.3 mM
- CCCC(=O)OC(C)C(C)=O (stereo not drawn) [Butan-3-one-2-yl-butanoate] — 4.3-fold lower, 0.76 ± 0.1 mM
- CCCC(=O)C(C)=O [2,3-Hexanedione] — within 1.5-fold, 2.2 ± 0.4 mM
- CC(=O)C(C)=O [Diacetyl] — 1.7-fold lower, 1.9 ± 0.3 mM

From publication PMC4647570, “Ketoreductase TpdE from Rhodococcus jostii TMP1: characterization and application in the synthesis of chiral alcohols” (PeerJ, 2015)
